Measured values as given in Sander's compilation of Henry's law constants.

How the values were obtained:
[1] = Henry solubility constant Hcp at 293 K (mol/(m3 Pa))
[2] = Henry solubility constant Hcp at 273 K (mol/(m3 Pa)); details: reference: Razumovskii and Zaikov (1971)
[3] = Henry solubility constant Hcp at 310 K (mol/(m3 Pa)); details: reference: Power and Stegall (1970)
[4] = Henry solubility constant Hcp at 298.15 K (mol/(m3 Pa))
[5] = Henry solubility constant Hcp at 287 K (mol/(m3 Pa)); details: reference: Hempel (1901)
[6] = Henry solubility constant Hcp at 311 K (mol/(m3 Pa)); details: reference: Grollman (1929)
[7] = Henry solubility constant Hcp at 323 K (mol/(m3 Pa)); details: reference: Dallos et al. (1983)
[8] = Henry solubility constant Hcp at 283 K (mol/(m3 Pa))
[9] = Henry solubility constant Hcp at 284 K (mol/(m3 Pa)); details: reference: George et al. (1994b)
[10] = Henry solubility constant Hcp at 278 K (mol/(m3 Pa)); details: reference: De Bruyn et al. (1995a)
[11] = Henry solubility constant Hcp at 308 K (mol/(m3 Pa)); details: reference: Guo and Brimblecombe (2007)
[12] = reference: Morrison and Billett (1952)
[13] = reference: Orcutt and Seevers (1937a)

With `O=O` [oxygen] the “Henry solubility constant Hcp at 293 K” value ([1]; reference: da Silva et al. (1980)) was 1.2e-05, the “Henry solubility constant Hcp at 273 K” value [2] was 0.00014 and the “Henry solubility constant Hcp at 310 K” value [3] was 1.1e-05. For the same compound, the “Henry solubility constant Hcp” value ([4]; reference: Benson et al. (1979)) was 1.3e-05, the “Henry solubility constant Hcp” value ([4]; reference: Bohr and Bock (1891)) was 1.3e-05 and the “Henry solubility constant Hcp” value ([4]; reference: Bunsen (1855a)) was 1.2e-05. The “Henry solubility constant Hcp” value ([4]; reference: Carpenter (1966)) was 1.2e-05, the “Henry solubility constant Hcp” value ([4]; reference: Cosgrove and Walkley (1981)) was 1.3e-05 and the “Henry solubility constant Hcp” value ([4]; reference: Cramer (1980)) was 1.3e-05. The “Henry solubility constant Hcp” value ([4]; reference: Fox (1909)) was 1.3e-05, the “Henry solubility constant Hcp” value ([4]; reference: Geffcken (1904)) was 1.2e-05 and the “Henry solubility constant Hcp” value ([4]; reference: Millero et al. (2002a)) was 1.2e-05. The “Henry solubility constant Hcp” value ([4]; reference: Millero et al. (2002b)) was 1.2e-05, the “Henry solubility constant Hcp” value [4, 12] was 1.3e-05 and the “Henry solubility constant Hcp” value ([4]; reference: Murray and Riley (1969)) was 1.3e-05. For the same compound, the “Henry solubility constant Hcp” value [4, 13] was 1.2e-05, the “Henry solubility constant Hcp” value ([4]; reference: Rettich et al. (1981)) was 1.3e-05 and the “Henry solubility constant Hcp” value ([4]; reference: Rettich et al. (2000)) was 1.3e-05. The “Henry solubility constant Hcp” value ([4]; reference: Sherwood et al. (1991)) was 1.3e-05, the “Henry solubility constant Hcp” value ([4]; reference: Shoor et al. (1969)) was 1.2e-05 and the “Henry solubility constant Hcp” value ([4]; reference: Timofejew (1890)) was 1.2e-05. For the same compound, the “Henry solubility constant Hcp” value ([4]; reference: Winkler (1891b)) was 1.3e-05.

In the case of `O=C=S` [carbon oxide sulfide], the “Henry solubility constant Hcp at 287 K” value [5] is reported as 0.00034, the “Henry solubility constant Hcp” value ([4]; reference: De Bruyn et al. (1995b)) is reported as 0.00022 and the “Henry solubility constant Hcp” value ([4]; reference: Stock and Kuß (1917)) is reported as 0.00024. For the same compound, the “Henry solubility constant Hcp” value ([4]; reference: Winkler (1906)) was 0.00021 and the “Henry solubility constant Hcp” value ([4]; reference: Winkler (1907)) was 0.00021.

For `C=C` [ethene], the “Henry solubility constant Hcp at 311 K” value [6] was 3.4e-05, the “Henry solubility constant Hcp” value ([4]; reference: Maaßen (1995)) was 4.9e-05 and the “Henry solubility constant Hcp” value [4, 12] was 4.7e-05. For the same compound, the “Henry solubility constant Hcp” value [4, 13] was 4.8e-05, the “Henry solubility constant Hcp” value ([4]; reference: Reichl (1995)) was 4.8e-05 and the “Henry solubility constant Hcp” value ([4]; reference: Winkler (1906)) was 4.8e-05.

With `Nc1ccccc1` [aminobenzene] the “Henry solubility constant Hcp at 323 K” value [7] was 1.1, the “Henry solubility constant Hcp at 283 K” value ([8]; reference: Heal et al. (1995)) was 1.2 and the “Henry solubility constant Hcp” value ([4]; reference: Jayasinghe et al. (1992)) was 5.

For `O=C(F)C(F)(F)F` [trifluoroacetylfluoride], the “Henry solubility constant Hcp at 284 K” value [9] was 0.03, the “Henry solubility constant Hcp at 278 K” value [10] was 0.0095 and the “Henry solubility constant Hcp” value ([4]; reference: Mirabel et al. (1996)) was 0.03.

With `CC(=O)OO[N+](=O)[O-]` [peroxyacetyl nitrate] the “Henry solubility constant Hcp at 293 K” value ([1]; reference: Kames and Schurath (1995)) was 0.04, the “Henry solubility constant Hcp at 283 K” value ([8]; reference: Holdren et al. (1984)) was 0.049 and the “Henry solubility constant Hcp” value ([4]; reference: Easterbrook et al. (2023)) was 0.03. For the same compound, the “Henry solubility constant Hcp” value ([4]; reference: Frenzel et al. (2000)) was 0.023 and the “Henry solubility constant Hcp” value ([4]; reference: Kames et al. (1991)) was 0.028.

In the case of `O=[N+]([O-])c1ccc(O)cc1` [4-nitrophenol], the “Henry solubility constant Hcp at 308 K” value [11] is reported as 210.
